System: MPNST complex spheroid with HUVEC/MSC, growth, % test/control
Assay: Anticancer human tumor MPNST cell line growth inhibition [Asc];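 further: compounds left on spheroids for seven days before reading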
Settings: for IC50: curve of first compound; for viability, T/C: stronger effect = lower value
Description: Multicellular complex tumor spheroid response to apoptosis pathway targeting inhibitors Alrizomadlin, Pelcitoclax, and Dasminapant in combination with a variety of drugs and investigational agents in selected tumor cell lines
The MDM2 inhibitor alrizomadlin, the Bcl-2/Bcl-xL inhibitor pelcitoclax, and the IAPs inhibitor dasminapant were evaluated both individually and in combination with standard of care and investigational anticancer small molecules within a complex spheroid model of solid tumors. . Complex spheroids include a stromal component modeled by human endothelial cells (HUVEC) and fibroblasts modeled by human mesenchymal stem cells (MSCs). The concentration ranges selected for each drug and investigational agent were based upon clinically achievable concentrations if the clinical Cmax of the agent was known.
Compounds. The drugs and investigational agents: alrizomadlin (APG-115; NSC831270), pelcitoclax (APG-1252; NSC835773), dasminapant (APG-1387;NSC834197), TAK-243 (NSC785004), copanlisib (NSC809693), olaparib (NSC753686), talazoparib (NSC767125), cobimetinib (NSC 768068), eltanexor (KPT-8602, NSC 794443), abemaciclib (NSC 768073), sotorasib (NSC818433), adagrasib (NSC 831453), MRTX-1133 (NSC 836407), Iadademestat (ORY1001, NSC 806812), and RMC-4630 (NSC839698), were obtained from the NCI Developmental Therapeutics Program Chemical Repository. The FDA-approved anticancer drug set is available from the Developmental Therapeutics Program at https://dtp.cancer.gov/organization/dscb/obtaining/available plates.htm. […] The stock solutions were prepared in dimethyl sulfoxide (DMSO, Sigma-Aldrich, St. Louis, MO, cat. D2650) at 800-fold the tested concentration and stored at -70 degrees C prior to their use. All drugs and investigational agents were tested over a range starting from a high concentration at or near the clinical Cmax and decreasing in half-log increments. If the clinical Cmax for an agent had not been determined, the highest concentration tested was 10 microM.
The patient-derived cancer (PDC) cell lines include five colon adenocarcinomas: 186277-243-T-J2-PDC, 616215-338-R-J1-PDC, 439559-082-T-J2-PDC, 463943-066-T-J2-PDC, and 519858-162-T-J1-PDC; three pancreatic carcinomas: 323965-272-R-J2-PDC, 521955-158-R6-J3-PDC, and 521955-158-R2-J5-PDC; two uterine sarcomas: 327498-152-R-J2-PDC and 993429-296-R-J1-PDC; two rhabdomyosarcomas: 755483-174-R-J1-PDC and 772245-204-R-J1-PDC; two soft tissue sarcomas: 126254-015-R-J1-PDC and 494315-158-R-J1-PDC; two malignant fibrous histiocytomas: 317291-083-R-J1-PDC and 596521-263-R-J1-PDC; two breast carcinomas: 171881-019-R-J1-PDC and 885512-296-R-J2-PDC; and one ovarian carcinoma: 6556581-035-R-J-PDC were obtained from the NCI PDMR, (https://pdmr.cancer.gov). The established cell lines HSSY-2 synovial sarcoma (RRID:CVCL 8719), SYO-1 synovial sarcoma (RRID:CVCL_7146), MPNST malignant peripheral neural sheath tumor were obtained from the Sloan Kettering Institute. The following established cell lines were purchased from the American Type Culture Collection (ATCC, Manassas, VA), Sor the received from the NCI repository:, PANC-1 pancreatic carcinoma (CRL-1469, RRID:CVCL_0480), OVCAR-5 ovarian carcinoma (RRID:CVCL_1628), OVCAR-8 ovarian carcinoma (RRID:CVCL_1629), , MCF-7 breast carcinoma (CRL-12584, RRID:CVCL_0031), MDA-MB-231 breast carcinoma (CRL-12532, RRID:CVCL_0062), NCI-H1876 small cell lung carcinoma (CRL-5902, RRID:CVCL_1503), NCI-H510A small cell lung carcinoma (HTB-184, RRID:CVCL_1565), NCI-H1417 (CRL-5869, RRID:CVCL_1469), and NCI-H196 small cell lung carcinoma (CRL-5823, RRID:CVCL_1509). Dr. Peter Houghton (Greehey Children's Cancer Research Institute, University of Texas Health Science Center, San Antonio, TX) provided Rh-18 rhabdomyosarcoma (RRID:CVCL_1659). Pooled donor human umbilical vein endothelial cells (HUVEC, Lonza, cat. CC-2519) and human mesenchymal stem cells (hMSC, Lonza, cat. PT-2501) were purchased from Lonza (Walkersville, MD).
Cell Culture. […]

[1] = second compound 0.03 µM, first compound 0.00316 µM
[2] = second compound 0.03 µM, first compound 0.01 µM
[3] = second compound 0.03 µM, first compound 0.0316 µM
[4] = second compound 0.03 µM, first compound 0.1 µM
[5] = second compound 0.03 µM, first compound 0.316 µM
[6] = second compound 0.03 µM, first compound 1 µM
[7] = second compound 0.0949 µM, first compound 0.00316 µM
[8] = second compound 0.0949 µM, first compound 0.01 µM
[9] = second compound 0.0949 µM, first compound 0.0316 µM
[10] = second compound 0.0949 µM, first compound 0.1 µM
[11] = second compound 0.0949 µM, first compound 0.316 µM
[12] = second compound 0.0949 µM, first compound 1 µM
[13] = second compound 0.3 µM, first compound 0.00316 µM
[14] = second compound 0.3 µM, first compound 0.01 µM
[15] = second compound 0.3 µM, first compound 0.0316 µM
[16] = second compound 0.3 µM, first compound 0.1 µM
[17] = second compound 0.3 µM, first compound 0.316 µM
[18] = second compound 0.3 µM, first compound 1 µM
[19] = second compound 0.949 µM, first compound 0.00316 µM
[20] = second compound 0.949 µM, first compound 0.01 µM
[21] = second compound 0.949 µM, first compound 0.0316 µM
[22] = second compound 0.949 µM, first compound 0.1 µM
[23] = second compound 0.949 µM, first compound 0.316 µM
[24] = second compound 0.949 µM, first compound 1 µM
[25] = second compound 3 µM, first compound 0.00316 µM
[26] = second compound 3 µM, first compound 0.01 µM
[27] = second compound 3 µM, first compound 0.0316 µM
[28] = second compound 3 µM, first compound 0.1 µM
[29] = second compound 3 µM, first compound 0.316 µM
[30] = second compound 3 µM, first compound 1 µM

Compound: CCN1CCN(Cc2ccc(Nc3ncc(F)c(-c4cc(F)c5nc(C)n(C(C)C)c5c4)n3)nc2)CC1 + CCN1C(C(=O)NC23CCC(C(=O)O)(CC2)CC3)C(c2cccc(Cl)c2F)C2(C(=O)Nc3cc(Cl)ccc32)C12CCCCC2
- IC50 (second compound 0.03 µM): > 1 µM
- IC50 (second compound 0.0949 µM): > 1 µM
- IC50 (second compound 0.3 µM): > 1 µM
- IC50 (second compound 0.949 µM): > 1 µM
- IC50 (second compound 3 µM): > 1 µM
- viability, T/C [1]: 107%
- viability, T/C [2]: 109%
- viability, T/C [3]: 88.7%
- viability, T/C [4]: 75.3%
- viability, T/C [5]: 64.5%
- viability, T/C [6]: 72.6%
- viability, T/C [7]: 98.1%
- viability, T/C [8]: 111%
- viability, T/C [9]: 104%
- viability, T/C [10]: 106%
- viability, T/C [11]: 73.9%
- viability, T/C [12]: 77%
- viability, T/C [13]: 113%
- viability, T/C [14]: 93.9%
- viability, T/C [15]: 87.1%
- viability, T/C [16]: 103%
- viability, T/C [17]: 115%
- viability, T/C [18]: 90.1%
- viability, T/C [19]: 105%
- viability, T/C [20]: 91.6%
- viability, T/C [21]: 92.1%
- viability, T/C [22]: 92.3%
- viability, T/C [23]: 90.2%
- viability, T/C [24]: 91.4%
- viability, T/C [25]: 107%
- viability, T/C [26]: 92%
- viability, T/C [27]: 91.9%
- viability, T/C [28]: 76.5%
- viability, T/C [29]: 89.3%
- viability, T/C [30]: 85.7%

Compound: Cn1ncnc1[C@H]1c2n[nH]c(=O)c3cc(F)cc(c23)N[C@@H]1c1ccc(F)cc1 + CCN1C(C(=O)NC23CCC(C(=O)O)(CC2)CC3)C(c2cccc(Cl)c2F)C2(C(=O)Nc3cc(Cl)ccc32)C12CCCCC2
- IC50 (second compound 0.03 µM): 0.0472 µM
- IC50 (second compound 0.0949 µM): > 0.1 µM
- IC50 (second compound 0.3 µM): > 0.1 µM
- IC50 (second compound 0.949 µM): > 0.1 µM
- IC50 (second compound 3 µM): > 0.1 µM
- viability, T/C (second compound 0.03 µM, first compound 0.000316 µM): 84.6%
- viability, T/C (second compound 0.03 µM, first compound 0.001 µM): 82%
- viability, T/C [1]: 80.2%
- viability, T/C [2]: 65.9%
- viability, T/C [3]: 54.4%
- viability, T/C [4]: 43.4%
- viability, T/C (second compound 0.0949 µM, first compound 0.000316 µM): 106%
- viability, T/C (second compound 0.0949 µM, first compound 0.001 µM): 91.9%
- viability, T/C [7]: 97.7%
- viability, T/C [8]: 95.5%
- viability, T/C [9]: 74.9%
- viability, T/C [10]: 52.1%
- viability, T/C (second compound 0.3 µM, first compound 0.000316 µM): 106%
- viability, T/C (second compound 0.3 µM, first compound 0.001 µM): 92.9%
- viability, T/C [13]: 88.4%
- viability, T/C [14]: 91.7%
- viability, T/C [15]: 91.1%
- viability, T/C [16]: 57.7%
- viability, T/C (second compound 0.949 µM, first compound 0.000316 µM): 80.2%
- viability, T/C (second compound 0.949 µM, first compound 0.001 µM): 109%
- viability, T/C [19]: 79.8%
- viability, T/C [20]: 90.6%
- viability, T/C [21]: 81.2%
- viability, T/C [22]: 70.7%
- viability, T/C (second compound 3 µM, first compound 0.000316 µM): 97.1%
- viability, T/C (second compound 3 µM, first compound 0.001 µM): 94.3%
- viability, T/C [25]: 89.8%
- viability, T/C [26]: 86.6%
- viability, T/C [27]: 73.6%
- viability, T/C [28]: 72.7%

Compound: O=C(c1ccc(F)c(F)c1Nc1ccc(I)cc1F)N1CC(O)([C@@H]2CCCCN2)C1 + CCN1C(C(=O)NC23CCC(C(=O)O)(CC2)CC3)C(c2cccc(Cl)c2F)C2(C(=O)Nc3cc(Cl)ccc32)C12CCCCC2
- IC50 (second compound 0.03 µM): 0.467 µM
- IC50 (second compound 0.0949 µM): 0.323 µM
- IC50 (second compound 0.3 µM): 0.281 µM
- IC50 (second compound 0.949 µM): 0.247 µM
- IC50 (second compound 3 µM): 0.139 µM
- viability, T/C [1]: 87.4%
- viability, T/C [2]: 65%
- viability, T/C [3]: 72.2%
- viability, T/C [4]: 95.9%
- viability, T/C [5]: 65.9%
- viability, T/C [6]: 18.9%
- viability, T/C [7]: 95.4%
- viability, T/C [8]: 78%
- viability, T/C [9]: 87.6%
- viability, T/C [10]: 84.9%
- viability, T/C [11]: 50.6%
- viability, T/C [12]: 18.7%
- viability, T/C [13]: 90.9%
- viability, T/C [14]: 76%
- viability, T/C [15]: 90.9%
- viability, T/C [16]: 91.8%
- viability, T/C [17]: 45.7%
- viability, T/C [18]: 17.7%
- viability, T/C [19]: 88.9%
- viability, T/C [20]: 93.6%
- viability, T/C [21]: 82.2%
- viability, T/C [22]: 81.5%
- viability, T/C [23]: 41.4%
- viability, T/C [24]: 17.3%
- viability, T/C [25]: 77.4%
- viability, T/C [26]: 82.9%
- viability, T/C [27]: 68.3%
- viability, T/C [28]: 58.6%
- viability, T/C [29]: 32.1%
- viability, T/C [30]: 10.7%

From PubChem BioAssay AID1963442 (Molecular Pharmacology Branch, DTP, NCI, 2024)
